Read-outs that look alike come from different tables or passages of the source.
Experiments:
Micrococcus luteus B-109 = experiment: Agar-well diffusion, bactericidal activity; format: cell-based; details: Micrococcus luteus
Method in brief: (§1)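 Bacteria spread on agar (BP medium; GYCa for X. campestris; pH 7.2–7.4) with 6-mm wells, each receiving 150 μL compound solution. Cultures grown at 28 °C; growth-inhibition zone width measured after 36–40 h.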

[1] = tested on: Pectobacterium atrosepticum 1043; experiment: Agar-well diffusion, bactericidal activity; format: cell-based; details: Pectobacterium atrosepticum, 1043, 2 mM/L
Method in brief: as §1

[2] = tested on: Pectobacterium carotovorum subsp. carotovorum MI; experiment: Agar-well diffusion, bactericidal activity; format: cell-based; details: Pectobacterium carotovorum, 2 mM/L
Method in brief: as §1

[3] = tested on: Pseudomonas fluorescens EL-2.1; experiment: Agar-well diffusion, bactericidal activity; format: cell-based; details: Pseudomonas fluorescens, EL2.1, 2 mM/L
Method in brief: as §1

[4] = tested on: Xanthomonas campestris B-610; experiment: Agar-well diffusion, bactericidal activity; format: cell-based; details: Xanthomonas campestris
Method in brief: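 Agar-well diffusion on GYCa agar (pH 7.2–7.4) seeded with bacterial suspension; 150 μL compound solution placed in 6-mm wells. Inhibition zone width measured after 36–40 h incubation.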

[5] = tested on: five representative phytopathogens; experiment: Agar-well diffusion, bactericidal activity over the panel of phytopathogens; format: cell-based; details: for zone of inhibition at 2000 µM: 36 h, 2 mM solutions, dependent on the test system used, read-out: inhibition zone width (mm), range over the test systems
Method in brief: as §1

[6] = tested on: Fusarium oxysporum IBPPM 543; experiment: Mycelial radial growth inhibition; format: cell-based; details: Fusarium oxysporum; for inhibition of growth at 1 µM: 1 nmol/mL; for inhibition of growth at 1 µM / inhibition of growth at 5 µM / inhibition of growth at 20 µM / inhibition of growth at 40 µM: read-out: Inhibition value, I (%); for inhibition of growth at 5 µM: 5 nmol/mL; for inhibition of growth at 20 µM: 20 nmol/mL; for inhibition of growth at 40 µM: 40 nmol/mL; for EC50: day 5, read-out: EC50, µg/mL at Day 5, F. oxysporum
Method in brief: (§2)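 Compounds mixed into molten GPY agar at various concentrations; centre inoculated with a 5-mm mycelial plug from 10-day cultures and incubated at 27 °C. Colony diameter compared with untreated control until control plate was covered (usually 12 days); ≥4 replicates in two experiments.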

[7] = tested on: Phytophthora cactorum VKM F-985; experiment: Mycelial radial growth inhibition; format: cell-based; details: for inhibition of growth at 3 µM / inhibition of growth at 7 µM / inhibition of growth / inhibition of growth at 40 µM / EC50 / inhibition of growth at 1 µM / inhibition of growth at 5 µM / inhibition of growth at 15 µM: Phytophthora cactorum; for inhibition of growth at 3 µM: 3 nmol/mL; for inhibition of growth at 3 µM / inhibition of growth at 7 µM / inhibition of growth / inhibition of growth at 40 µM / inhibition of growth at 1 µM / inhibition of growth at 5 µM / inhibition of growth at 15 µM: read-out: Inhibition value, I (%); for inhibition of growth at 7 µM: 7 nmol/mL; for inhibition of growth: 27 nmol/mL; for inhibition of growth at 40 µM: 40 nmol/mL; for EC50: read-out: EC50, µg/mL at Day 5, P. cactorum; for inhibition of growth at 1 µM: 1 nmol/mL; for inhibition of growth at 5 µM: 5 nmol/mL; for inhibition of growth at 15 µM: 15 nmol/mL
Method in brief: as §2

[8] = B109, 2 mM/L, average of 3 experiments, read-out: width of the inhibition zone (mm), M. luteus
[9] = average of 3 experiments, read-out: width of the inhibition zone (mm), P. atrosepticum
[10] = Table S3, read-out: Inhibition zone width (mm), not less
[11] = average of 3 experiments, read-out: width of the inhibition zone (mm), P. carotovorum subsp. carotovorum
[12] = average of 3 experiments, read-out: width of the inhibition zone (mm), Ps. fluorescens
[13] = B610, 2 mM/L, average of 3 experiments, read-out: width of the inhibition zone (mm), X. campestris
[14] = B610, Table S3, 2 mM/L, read-out: Inhibition zone width (mm), not less
[15] = IBPPM543, 72 h, age of the fungus 3 days
[16] = IBPPM543, 120 h, age of the fungus 5 days
[17] = IBPPM543, 168 h, age of the fungus 7 days
[18] = IBPPM543, 216 h, age of the fungus 9 days
[19] = 120 h, age of the fungus 5 days
[20] = 168 h, age of the fungus 7 days
[21] = 216 h, age of the fungus 9 days

Compound `O=C(C[n+]1ccccc1)NN=C1C(=O)N(Cc2cccc(C(F)(F)F)c2)c2ccc(F)cc21.[Cl-]` [Compound 5c, 1-(2-(2-(5-Fluoro-2-oxo-1-(3-(trifluoromethyl)benzyl)indolin-3-ylidene)hydrazinyl)-2-oxoethyl)pyridin-1-ium chloride] has a zone of inhibition at 2000 µM (Micrococcus luteus B-109; [8]) of 4 mm, a zone of inhibition at 2000 µM [1, 9] of 5 mm and a zone of inhibition at 2000 µM [1, 10] of at least 5 mm. For the same compound, the zone of inhibition at 2000 µM [2, 11] was 5 mm, the zone of inhibition at 2000 µM [2, 10] was at least 5 mm and the zone of inhibition at 2000 µM [3, 12] was 5 mm. It also gave a zone of inhibition at 2000 µM [3, 10] of at least 5 mm, a zone of inhibition at 2000 µM [4, 13] of 7 mm and a zone of inhibition at 2000 µM [4, 14] of at least 7 mm. It also gave a zone of inhibition at 2000 µM [5] of 4 to 7 mm, an inhibition of growth at 1 µM [6, 15] of 22% and an inhibition of growth at 5 µM [6, 15] of 40%. It also gave an inhibition of growth at 20 µM [6, 15] of 49%, an inhibition of growth at 40 µM [6, 15] of 57% and an EC50 ([6]; IBPPM543, 120 h) of 14.9 µg/mL. The inhibition of growth at 1 µM [6, 16] was 19%, the inhibition of growth at 5 µM [6, 16] was 36% and the inhibition of growth at 20 µM [6, 16] was 45%. The inhibition of growth at 40 µM [6, 16] was 55%, the inhibition of growth at 1 µM [6, 17] was 13% and the inhibition of growth at 5 µM [6, 17] was 28%. For the same compound, the inhibition of growth at 20 µM [6, 17] was 35%, the inhibition of growth at 40 µM [6, 17] was 52% and the inhibition of growth at 1 µM [6, 18] was 3%. For the same compound, the inhibition of growth at 20 µM [6, 18] was 21%, the inhibition of growth at 40 µM [6, 18] was 51% and the “antagonistic effect superior to that of N-cetylpyridinium chloride” value ([7]; 5 days of growth) was 2.3 times. For the same compound, the inhibition of growth at 3 µM ([7]; 72 h, age of the fungus 3 days) was 7%, the inhibition of growth at 7 µM ([7]; 72 h, age of the fungus 3 days) was 13% and the inhibition of growth ([7]; 72 h, age of the fungus 3 days) was 36%. It also gave an inhibition of growth at 40 µM ([7]; 72 h, age of the fungus 3 days) of 55%, an EC50 ([7]; 120 h, day 5) of 15 µg/mL and an inhibition of growth at 3 µM [7, 19] of 8%. The inhibition of growth at 7 µM [7, 19] was 21%, the inhibition of growth [7, 19] was 38% and the inhibition of growth at 40 µM [7, 19] was 64%. The inhibition of growth at 3 µM [7, 20] was 4%, the inhibition of growth at 7 µM [7, 20] was 14% and the inhibition of growth [7, 20] was 29%. The inhibition of growth at 40 µM [7, 20] was 42%, the inhibition of growth at 3 µM [7, 21] was 3% and the inhibition of growth at 7 µM [7, 21] was 12%. The inhibition of growth [7, 21] was 18%, the inhibition of growth at 40 µM [7, 21] was 36% and the “EC50, µg/mL at Day 5, P. cactorum” value ([7]; day 5) was 15.40 µg/mL. The melting point was 172 to 173 °C.

`O=C(C[n+]1ccccc1)NN=C1C(=O)N(Cc2c(F)c(F)c(F)c(F)c2F)c2ccc(F)cc21.[Cl-]` [Compound 5d, 1-(2-(2-(5-Fluoro-2-oxo-1-((perfluorophenyl)methyl)indolin-3-ylidene)hydrazinyl)-2-oxoethyl)pyridin-1-ium chloride] gave a zone of inhibition at 2000 µM (Micrococcus luteus B-109; [8]) of 3 mm, a zone of inhibition at 2000 µM (Micrococcus luteus B-109; B109, Table S3, 2 mM/L, read-out: Inhibition zone width (mm), not less) of at least 3 mm and a zone of inhibition at 2000 µM [1, 9] of 4 mm. It also gave a zone of inhibition at 2000 µM [1, 10] of at least 4 mm, a zone of inhibition at 2000 µM [2, 11] of 4 mm and a zone of inhibition at 2000 µM [2, 10] of at least 4 mm. For the same compound, the zone of inhibition at 2000 µM [3, 12] was 2 mm, the zone of inhibition at 2000 µM [3, 10] was at least 2 mm and the zone of inhibition at 2000 µM [4, 13] was 4 mm. For the same compound, the zone of inhibition at 2000 µM [4, 14] was at least 4 mm, the zone of inhibition at 2000 µM [5] was 2 to 4 mm and the “bactericidal activity” value ([5]; Table S2) was “moderate bactericidal activity”. It also gave an inhibition of growth at 1 µM [6, 15] of 9%, an inhibition of growth at 5 µM [6, 15] of 33% and an inhibition of growth at 20 µM [6, 15] of 35%. For the same compound, the inhibition of growth at 40 µM [6, 15] was 49%, the EC50 ([6]; IBPPM543, 120 h) was 17.4 µg/mL and the inhibition of growth at 1 µM [6, 16] was 10%. The inhibition of growth at 5 µM [6, 16] was 24%, the inhibition of growth at 20 µM [6, 16] was 37% and the inhibition of growth at 40 µM [6, 16] was 54%. For the same compound, the inhibition of growth at 1 µM [6, 17] was 10%, the inhibition of growth at 5 µM [6, 17] was 23% and the inhibition of growth at 20 µM [6, 17] was 32%. The inhibition of growth at 40 µM [6, 17] was 41%, the inhibition of growth at 1 µM [6, 18] was 0% and the inhibition of growth at 5 µM [6, 18] was 16%. For the same compound, the inhibition of growth at 20 µM [6, 18] was 18%, the inhibition of growth at 40 µM [6, 18] was 36% and the inhibition of growth at 1 µM ([7]; 72 h, age of the fungus 3 days) was 15%. The inhibition of growth at 5 µM ([7]; 72 h, age of the fungus 3 days) was 20%, the inhibition of growth at 15 µM ([7]; 72 h, age of the fungus 3 days) was 26% and the inhibition of growth ([7]; 72 h, age of the fungus 3 days) was 28%. The inhibition of growth at 40 µM ([7]; 72 h, age of the fungus 3 days) was 35%, the EC50 ([7]; 120 h, day 5) was 24.7 µg/mL and the inhibition of growth at 1 µM [7, 19] was 12%. It also gave an inhibition of growth at 5 µM [7, 19] of 19%, an inhibition of growth at 15 µM [7, 19] of 28% and an inhibition of growth [7, 19] of 32%. The inhibition of growth at 40 µM [7, 19] was 43%, the inhibition of growth at 1 µM [7, 20] was 10% and the inhibition of growth at 5 µM [7, 20] was 16%. The inhibition of growth at 15 µM [7, 20] was 23%, the inhibition of growth [7, 20] was 25% and the inhibition of growth at 40 µM [7, 20] was 33%. For the same compound, the inhibition of growth at 1 µM [7, 21] was 8%, the inhibition of growth at 5 µM [7, 21] was 11% and the inhibition of growth at 15 µM [7, 21] was 13%. The inhibition of growth [7, 21] was 22%, the inhibition of growth at 40 µM [7, 21] was 29% and the melting point was 165 to 166 °C.
